Results on seven molecules are retold here after ChEMBL document CHEMBL2046386, “Potent and selective aminopyrimidine-based B-Raf inhibitors with favorable physicochemical and pharmacokinetic properties” (J Med Chem, 2012).

Series [1] deals with T1, Serine/threonine-protein kinase B-raf (Homo sapiens, UniProt P15056, V600E). Briefly: Inhibition of B-raf V600E mutant-mediated Erk phosphorylation in human MALM-3M cells by fluorometric analysis. In kind it is cell-based.
A short description of series [2]: Thermodynamic solubility of the compound at 0.5 mg/ml after 24 hrs by shake flask method at pH 1.2. In kind it is physicochemical. The note with it: buffer, read-out: Therm_solubility.
Series [3] has as its target T1, Serine/threonine-protein kinase B-raf. Nature of the series: Inhibition of His6X-tagged human B-raf V600E mutant expressed in baculovirus infected insect cells coexpressing […] using [gamma33P]ATP after 60 mins by scintillation counting.
Series [4] in a line: Dissociation constant, pKa of the compound at acidic pH. It is filed as physicochemical.
The nature of series [5]: Dissociation constant, pKa of the compound at basic pH. It is filed as physicochemical.
Series [6] in a line: Thermodynamic solubility of the compound at 0.5 mg/ml after 24 hrs by shake flask method at pH 6.5. It is filed as physicochemical. The note with it: buffer, read-out: Therm_solubility.
A short description of series [7]: Clearance in mouse at 2.5 mg/kg, iv. It is filed as ADME, organism-based. Also noted: dose 2.5 mg/kg, route intravenous. Conditions: in vivo.
Series [8] can be described thus: Volume of distribution at steady state in mouse at 2.5 mg/kg, iv. In kind it is ADME, organism-based. Details: dose 2.5 mg/kg, route intravenous. Conditions: in vivo, read-out: Vdss.
Series [9] in a line: AUC in mouse at 30 mg/kg, po dosed in 0.5% methylcellulose/0.2% Tween 80/99.3% water. Also noted: dose 30 mg/kg, route oral. It is filed as ADME, organism-based. Conditions: in vivo.
The nature of series [10]: Oral bioavailability in mouse at 30 mg/kg. In kind it is ADME, organism-based. Conditions: in vivo.
Series [11] in a line: Plasma protein binding in mouse. Conditions: read-out: PPB (converted). In kind it is ADME, cell-free.
The nature of series [12]: Lipophilicity, log P of the compound. The note with it: octanol/water. It is filed as physicochemical.
A short description of series [13]: AUC in mouse at 30 mg/kg, po dosed as as solution. In kind it is ADME, organism-based. Details: dose 30 mg/kg, route oral. The note with it: plasma.
The subject of a further series is COLO 205. Briefly: Antitumor activity against human COLO205 cells expressing B-raf V600E mutant xenografted in po dosed NCr nude mouse assessed as decrease in tumor volume administered once daily for 21 days measured twice a week up to 21 days. It is filed as functional. In general terms: In xenograft studies the graft and the host belong to different species.

The nature of series [14]: Thermodynamic solubility of the compound at 0.5 mg/ml after 24 hrs by shake flask method at pH 7.4. It is filed as physicochemical. Conditions: buffer, read-out: Therm_solubility.
Setting [15] is: Mus musculus, COLO 205, po, 504 h.

≈ marks a conversion by molar mass, not a printed value.

T1 sequence (P15056 2-766 V600E limits assumed): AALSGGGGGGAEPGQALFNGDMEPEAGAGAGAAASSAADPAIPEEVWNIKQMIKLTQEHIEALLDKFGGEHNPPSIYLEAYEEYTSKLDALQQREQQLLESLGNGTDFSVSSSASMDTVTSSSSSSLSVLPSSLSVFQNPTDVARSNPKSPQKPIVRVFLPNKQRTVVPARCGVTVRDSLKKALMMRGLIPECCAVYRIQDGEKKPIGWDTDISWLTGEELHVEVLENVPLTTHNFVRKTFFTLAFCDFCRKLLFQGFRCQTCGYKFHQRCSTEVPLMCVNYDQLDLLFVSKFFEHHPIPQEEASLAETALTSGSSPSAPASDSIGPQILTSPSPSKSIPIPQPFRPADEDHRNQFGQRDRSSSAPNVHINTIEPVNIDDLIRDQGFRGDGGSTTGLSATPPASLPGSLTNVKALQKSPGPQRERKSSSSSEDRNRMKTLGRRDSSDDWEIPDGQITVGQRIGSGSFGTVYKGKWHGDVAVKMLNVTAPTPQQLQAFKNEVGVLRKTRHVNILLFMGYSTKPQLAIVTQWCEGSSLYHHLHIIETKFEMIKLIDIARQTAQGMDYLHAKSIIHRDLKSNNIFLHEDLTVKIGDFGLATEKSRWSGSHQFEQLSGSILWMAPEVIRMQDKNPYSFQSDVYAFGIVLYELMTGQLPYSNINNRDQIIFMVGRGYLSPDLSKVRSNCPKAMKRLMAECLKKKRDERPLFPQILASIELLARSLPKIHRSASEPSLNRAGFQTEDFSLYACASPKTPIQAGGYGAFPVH

For orientation: IC50 means the point on the concentration scale where inhibition reaches its midpoint. Higher therefore signals weaker potency. In turn, `CCCS(=O)(=O)Nc1ccc(F)c(NC(=O)Nc2cc(NCCO)ncn2)c1F` came in with an IC50 in series [1] of 3400 nM. Besides, the solubility thermodynamic at 24 h in [2] came to 900 µg/mL (≈ 2090 µM).

The pKa is the pH at which an ionisable group is half protonated. A lower pKa goes with a stronger acid or weaker base. By clearance is commonly meant the volume of plasma or blood freed of the substance per unit of time. As usually defined, the AUC is concentration integrated over time. A high value points to high exposure. The bioavailability is the share of a dose that reaches the circulation, judged against a reference dose that is usually intravenous. One may read the logP as the decadic logarithm of the partition coefficient of the neutral form, usually between octanol and water. Turning to `CCCS(=O)(=O)Nc1ccc(F)c(NC(=O)c2cccc3c(N)ncnc23)c1F`, the IC50 was determined as 1.8 nM in series [3] and 9.5 nM in series [1]. In addition, the pKa in [4] and in series [5] was 4.5 throughout. Further, the solubility thermodynamic at 24 h in [2] is more than 1000 µg/mL; in series [6] it was 1 µg/mL (≈ 2.37 µM). Besides, in series [7], the clearance was determined as 2.5 mL/min/kg. In series [8], the Vd is 0.4 L/kg. The AUC came out at 290 µM·h in series [9] and 331 µM·h in [13]. Further, the bioavailability in series [10] was determined as 71%. Also, the fraction unbound in [11] was 0.015. The molecule further returned a logP in series [12] of 2.9.

As for `CCCS(=O)(=O)Nc1ccc(F)c(NC(=O)c2cccc3c(N)ncnc23)c1Cl`, the IC50 in series [3] was determined as 0.54 nM; in series [1], 7.7 nM.

In general, TGI refers to how far tumour growth fell short of that in controls. As usually defined, the ED50 is the midpoint of the dose-response relation. For `CCCS(=O)(=O)Nc1ccc(F)c(C(=O)Nc2cnc3[nH]nc(OC)c3c2)c1F`, the TGI with COLO 205 is 76%. Also, the ED50 in the series on COLO 205 (setting [15]) amounted to 25.2 mg/kg. For the same molecule, the ED90 in the series with COLO 205 (setting [15]) stood at 139 mg/kg. In addition, the pKa in series [4] and in series [5] was 0.7 in each case. For the same molecule, the solubility thermodynamic at 24 h came out at 3 µg/mL (≈ 7.05 µM) in [2], 4 µg/mL (≈ 9.4 µM) in series [6] and 9 µg/mL (≈ 21.2 µM) in [14].

A word on the EC50: it is the concentration needed to bring the measured effect to its halfway point. A higher EC50 goes with lower potency in that assay. `CCCS(=O)(=O)Nc1ccc(F)c(NC(=O)Nc2ncnc3[nH]nc(OC)c23)c1F` gave an IC50 in [3] of 1.6 nM. The molecule also displayed an EC50 in [1] of 2.6 nM. Also, the pKa in series [4] amounted to 1.8. For the same molecule, the solubility thermodynamic at 24 h in series [2] is 49 µg/mL (≈ 111 µM).

On to `CCCS(=O)(=O)Nc1ccc(Cl)c(NC(=O)c2csc3c(N)ncnc23)c1F`, for which the IC50 in series [3] came out at 0.9 nM; in series [1] it was 19 nM.

Turning to `CCCS(=O)(=O)Nc1ccc(Cl)c(NC(=O)c2cccc3c(N)ncnc23)c1F`, the IC50 in series [3] came out at 0.59 nM; in series [1] it was 9.5 nM.
